In the PolyMetriX glass transition set:
± gives the standard deviation of the reports.

Compound	glass transition temperature
*c1cccc(C(=O)Nc2ccc(Oc3ccc(S(=O)(=O)c4ccc(Oc5ccc(NC(=O)c6cccc(N7C(=O)c8ccc(-c9cccc%10c9C(=O)N(*)C%10=O)cc8C7=O)c6)cc5)cc4)cc3)cc2)c1 (repeat unit)	263.00 °C
*CC(*)OC(=O)C1CCCC1 (repeat unit)	36.00 °C
*C(=O)c1cc2c(cc1Cl)C(=O)N(c1cc(C(=O)OC)cc(N3C(=O)c4cc(*)c(Cl)cc4C3=O)c1)C2=O (repeat unit)	321.00 °C
*CC(*)c1ccc(Cl)c(F)c1 (repeat unit) [Poly(3-fluoro-4-chloro styrene) ]	122 ± 0.6 °C
*CCN(CCN1C(=O)c2ccc(C(c3ccc4c(c3)C(=O)N(*)C4=O)(C(F)(F)F)C(F)(F)F)cc2C1=O)c1ccc(/N=N/c2ccc([N+](=O)[O-])cc2)cc1 (repeat unit)	210.00 °C
*CCCCCCCCC(c1ccc(O)cc1)C(*)c1ccc(O)cc1C (repeat unit)	-12.00 °C
*c1ccc(-c2cc(-c3ccc(OCC(CC)CCCC)cc3)cc(-c3ccc(-c4ccc5c(c4)C(CCCCCC)(CCCCCC)c4cc(*)ccc4-5)cc3)c2-c2ccc(OCC(CC)CCCC)cc2)cc1 (repeat unit)	110.00 °C
*CCCCOCCCCOCCCCOC(=O)c1ccc(/N=C/c2cc(OCCC(C)CCCC(C)C)c(/C=N/c3ccc(C(=O)O*)cc3)cc2OCCC(C)CCCC(C)C)cc1 (repeat unit)	-4.80 °C
*Oc1ccc(S(=O)(=O)c2ccc3ccc(S(=O)(=O)c4ccc(*)cc4)cc3c2)cc1 (repeat unit)	250.00 °C
*CC(O)COc1ccc(O*)cc1 (repeat unit)	60.00 °C
*O[Si](C)(C)O[Si](C)(C)O[Si](C)(C)O[Si](C)(C)O[Si](C)(C)O[Si](C)(C)OC1=C(*)c2cccc3cccc1c23 (repeat unit)	-93.00 °C
*CC(*)C(C)C (repeat unit) [Poly(isopropylethylene)]	49 ± 18 °C
*CC(*)C(=O)OC(C)C (repeat unit)	-5.00 °C
*CCCCN1C(=O)c2ccc(C(=O)Oc3ccc(-c4ccc(OC(=O)c5ccc6c(c5)C(=O)N(*)C6=O)cc4)cc3)cc2C1=O (repeat unit)	126.00 °C
*c1c(C)cc(C(c2cccc(C(F)(F)F)c2)c2cc(C)c(N3C(=O)c4ccc(Oc5ccc6c(c5)C(=O)N(*)C6=O)cc4C3=O)c(C)c2)cc1C (repeat unit)	264.10 °C
*CC(*)OC(=O)C1(C)CCCCC1 (repeat unit)	86.00 °C
*Oc1ccc(C(c2ccccc2)(c2ccccc2)c2ccc(Oc3ccc(C(=O)Nc4ccc(NC(=O)c5ccc(*)cc5)cc4)cc3)cc2)cc1 (repeat unit)	254.00 °C
*c1ccc(Oc2ccc(N3C(=O)c4ccc(Oc5cccc6c(Oc7ccc8c(c7)C(=O)N(*)C8=O)cccc56)cc4C3=O)cc2)cc1 (repeat unit)	240.00 °C
*C(=O)Nc1ccc(Oc2ccc(S(=O)(=O)c3ccc(Oc4ccc(NC(=O)c5ccc6c(c5)C(=O)N(c5ccc(Oc7ccc8ccc(Oc9ccc(N%10C(=O)c%11ccc(*)cc%11C%10=O)cc9)cc8c7)cc5)C6=O)cc4)cc3)cc2)cc1 (repeat unit)	274.00 °C
*c1ccc(Oc2ccc(C(c3ccc(Oc4ccc(-c5nnc(*)c6c(-c7ccccc7)c(-c7ccc8ccccc8c7)c(-c7ccc8ccccc8c7)c(-c7ccccc7)c56)cc4)cc3)(C(F)(F)F)C(F)(F)F)cc2)cc1 (repeat unit)	291.00 °C
*Oc1ccc(C2(c3ccc(OC(*)=O)cc3)CC3CC2C2C4CCC(C4)C32)cc1 (repeat unit)	267.50 °C

Compound	glass transition temperature
*CCOCCOC(=O)C(C)C(=O)O* (repeat unit)	-29.00 °C
*Oc1ccc(-c2ccc(Oc3ccc(C(=O)c4c(C(=O)c5ccc(*)cc5)c(-c5ccc(F)cc5)c(-c5ccc(F)cc5)c(-c5ccc(F)cc5)c4-c4ccc(F)cc4)cc3)cc2)cc1 (repeat unit)	275.00 °C
*CC(*)c1ccc(OCCCC)cc1 (repeat unit) [Poly(p-n-butoxy styrene) ]	47 ± 3.3 °C
*Oc1ccc(C2(c3ccc(Oc4ccc(C(=O)c5c(C(=O)c6ccc(*)cc6)c(-c6ccc(F)cc6)c(-c6ccc(F)cc6)c(-c6ccc(F)cc6)c5-c5ccc(F)cc5)cc4)cc3)c3ccccc3-c3ccccc32)cc1 (repeat unit)	293.00 °C
*Oc1ccc2cc(C(*)=O)ccc2c1 (repeat unit)	147.00 °C
*Nc1ccc(NC(=O)c2cc(C(*)=O)cc(S(=O)(=O)c3ccccc3)c2)cc1 (repeat unit)	308.00 °C
*/C=C/c1ccc(/C=C/c2ccc3c(c2)C(CCCCCCOc2ccc4ccc(=O)oc4c2)(CCCCCCOc2ccc4ccc(=O)oc4c2)c2cc(*)ccc2-3)cc1 (repeat unit)	104.00 °C
*c1ccc(Oc2ccc(N3C(=O)c4ccc(C(c5ccc6c(c5)C(=O)N(c5ncc(*)s5)C6=O)(C(F)(F)F)C(F)(F)F)cc4C3=O)cc2)cc1 (repeat unit)	268.20 °C
*OP(=O)(Oc1ccccc1)Oc1cccc2c(*)cccc12 (repeat unit)	138.00 °C
*CC/C=C(/*)c1ccccc1 (repeat unit)	39.50 °C
*c1ccc(Oc2ccc(C(c3ccc(Oc4ccc(-c5nnc(*)n5-c5cccc(C(F)(F)F)c5)cc4)cc3)(C(F)(F)F)C(F)(F)F)cc2)cc1 (repeat unit)	185.00 °C
*c1ccc(OCCN(CC)c2ccc(C(C#N)=C(C#N)C#N)cc2)c(-c2cc(-c3ccccc3)c3cc(Oc4ccc5nc(*)cc(-c6ccccc6)c5c4)ccc3n2)c1 (repeat unit)	200.00 °C
*C(=O)c1ccc2c(c1)C(=O)N(c1ccc(C(=O)c3cccc(N4C(=O)c5ccc(*)cc5C4=O)c3)cc1)C2=O (repeat unit)	282.00 ± 3 °C
*c1ccc(-c2ccc(N(*)c3ccc(CCCC)cc3)cc2)cc1 (repeat unit)	180.00 °C
*O[Si](C)(C)O[Si](C)(C)O[Si](*)(C)c1c(F)c(F)c(F)c(F)c1F (repeat unit)	-83.00 °C
*CC(*)OC(=O)C(F)(F)C(F)(F)C(F)(F)C(F)(F)C(F)(F)C(F)(F)C(F)(F)C(F)(F)C(F)(F)F (repeat unit)	-18.00 °C
*c1ccc(OCCCCCCCCCCCOC(=O)CCCCC(=O)OCCCCCCCCCCCOc2ccc(-c3nnc(*)s3)cc2)cc1 (repeat unit)	69.00 °C
*OC1C(COCO)OC(*)C(O)C1O (repeat unit)	208.00 °C
*O[Si](*)(C)CCCCCCOc1ccc(-c2ccc(C#N)cc2)cc1 (repeat unit)	10.00 °C
*c1ccc(NC2CC(=O)N(c3ccc(Cc4ccc(N5C(=O)CC(Nc6ccc(-c7nc(-c8ccc(/C=C/c9ccc([N+](=O)[O-])cc9)cc8)[nH]c7*)cc6)C5=O)cc4)cc3)C2=O)cc1 (repeat unit)	250.00 °C
*Oc1ccc(OC(=O)c2ccc(OCCCCCCCCCCCCOc3ccc(C(*)=O)cc3)cc2)cc1/C=C/c1ccncc1 (repeat unit)	94.30 °C

Now from value to compound:

glass transition temperature	Compound
103.40 °C	*O[Si](*)(C)CCCCCCCCCCC(=O)Oc1ccc(-c2ccc(OC(=O)c3ccc(OCC)cc3)cc2)cc1 (repeat unit)
125.00 °C	*c1ccc(C(=O)OCCCCCCOC(=O)c2ccc(-c3nnc(*)s3)cc2)cc1 (repeat unit)
72.4 °C	*CC(*)(C)C(=O)OCCC[Si](O[Si](C)(C)C)(O[Si](C)(C)C)O[Si](C)(C)C (repeat unit)
275.00 °C	*CCOc1ccc(C(=O)Nc2cc(NC(=O)c3ccc(O*)cc3)cc(-c3nc4ccccc4[nH]3)c2)cc1 (repeat unit)
20.50 °C	*/C=C/C(C)C(*)C(=O)OCCN(C)c1ccc(N(C)C)cc1 (repeat unit)
73.00 °C	*CC(*)(C)C(=O)OCc1ccc2c(c1)c1ccccc1n2CCCCCC (repeat unit)
89.00 °C	*CCOC(=O)/C=C/C(=O)NCCCCCCNC(=O)/C=C/C(=O)O* (repeat unit)
90.00 °C	*CC(O)COc1ccc(C(C)(C)c2ccc(OCC(O)COc3cccc(NC(=O)CCCCCCCCCCC(=O)Nc4cccc(O*)c4)c3)cc2)cc1 (repeat unit)
220.00 °C	*Oc1ccc(Oc2ccc(C(=O)c3ccc(*)c(S(=O)(=O)O)c3)cc2S(=O)(=O)O)cc1 (repeat unit)
45.00 °C	*Oc1ccc(CC(NC(=O)CCc2ccc(OC(=O)COCC(*)=O)cc2)C(=O)OCCCCCC)cc1 (repeat unit)
56.00 °C	*Oc1ccc(C(C)(C)c2ccc(OC(=O)CC(C)CCC(*)=O)cc2)cc1 (repeat unit)
125.00 °C	*CC(*)(C)C(=O)OC1CC(C)CC(C)(C)C1 (repeat unit)
216.00 °C	*Oc1ccc(Oc2ccc(C(=O)Nc3ccc(Cc4ccc(NC(=O)c5ccc(*)cc5)cc4)cc3)cc2)cc1 (repeat unit)
126.00 °C	*Oc1cccc(NC(=O)c2ccc(C(=O)Nc3ccc(Oc4ccc(C(=O)c5ccc(*)cc5)cc4)cc3)cc2)c1 (repeat unit)
40.00 °C	*CCCNC(=O)CCCCCCCCC(=O)NCCCOCCOCCO* (repeat unit)
30.00 °C	*C(=O)c1ccc(N(*)CCCCCCCC)cc1 (repeat unit)
60.00 °C	*Oc1c(C)cc(*)cc1C(C)CCCCC (repeat unit)
205.00 °C	*Oc1ccc(S(=O)(=O)c2ccc(Oc3ccc(C(C)(C)c4ccc(*)c(Cl)c4)cc3Cl)cc2)cc1 (repeat unit)
94.00 °C	*CC(C)(C)COC(=O)Nc1ccc(Cc2ccc(NC(=O)O*)cc2)cc1 (repeat unit)
-87.00 °C	*O[Si](C)(C)O[Si](C)(C)OC(C)CCCCC(*)C (repeat unit)
93.00 °C	*CCCCCCCCCCCC(=O)Oc1ccc(C(C)(C)c2ccc(OC(=O)c3ccc4c(c3)C(=O)N(*)C4=O)cc2)cc1 (repeat unit)
27.7 °C	*/C=C/C1=C(*)CC(C(=O)OCC)(C(=O)OCC)C1 (repeat unit)
